The values below come from patent US8952024B2, “Herbicidal pyrimidone derivatives” (E I du Pont de Nemours and Company, priority 2009, dated 2015).

The test system of the first experiment is barnyardgrass (Echinochloa crus-galli). Nature of the experiment: Test A pre-/postemergence plant response. It counts as in vivo. The following applies: Postemergence, 125 g ai/ha; 0 to 100 scale where 0 is no effect and 100 is complete control. The method in brief: (§1)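 Pre: directed soil spray on seeded loam/sand blend. Post: same formulation (non-phytotoxic solvent + surfactant) on 2–10 cm plants, 1–2 leaf stage. Greenhouse ~10 d; visual injury score 0–100 vs untreated.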
For the compound `COc1ccc(-n2c(-c3cccc(F)c3)ncc(C(=O)C3=C(O)CCCC3=O)c2=O)cc1` [Compound 203], the “Plant response rating, Barnyardgrass” value is on record as 80.

The same experiment, now with this note: Postemergence, 500 g ai/ha; visual injury, 0 to 100 scale (0 no effect, 100 complete control), approx. ten days.
In the case of `COc1ccc(-n2c(-c3cccc(F)c3)ncc(C(=O)C3=C(O)CCCC3=O)c2=O)cc1` [Compound 203], the “Barnyardgrass plant response rating” value is reported as 100.

The same experiment, now with this note: Preemergence, 125 g ai/ha; 0 to 100 scale, 0 = no effect, 100 = complete control.
Consider `COc1ccc(-n2c(-c3cccc(F)c3)ncc(C(=O)C3=C(O)CCCC3=O)c2=O)cc1` [Compound 203], for which the “Plant response rating, Barnyardgrass” value is 30.

Staying with this experiment, now noted: Preemergence, 500 g ai/ha; 0 to 100 scale, 0 = no effect, 100 = complete control.
For `COc1ccc(-n2c(-c3cccc(F)c3)ncc(C(=O)C3=C(O)CCCC3=O)c2=O)cc1` [Compound 203], the “Plant response rating, Barnyardgrass” value was found to be 70.

For the next experiment, the system named is corn (Zea mays). Nature of the experiment: Test A pre-/postemergence plant response. It counts as in vivo. As to conditions: Postemergence, 125 g ai/ha; 0 to 100 scale where 0 is no effect and 100 is complete control. The gist of the method: as §1
With `COc1ccc(-n2c(-c3cccc(F)c3)ncc(C(=O)C3=C(O)CCCC3=O)c2=O)cc1` [Compound 203], the “Plant response rating, Corn” value stood at 0.

Still in this experiment, the particulars now being: Postemergence, 500 g ai/ha; visual injury, 0 to 100 scale (0 no effect, 100 complete control), approx. ten days.
As for `COc1ccc(-n2c(-c3cccc(F)c3)ncc(C(=O)C3=C(O)CCCC3=O)c2=O)cc1` [Compound 203], the “Corn plant response rating” value was 30.

The experiment is the same for the next values; noted with them: Preemergence, 125 g ai/ha; 0 to 100 scale, 0 = no effect, 100 = complete control.
Regarding `COc1ccc(-n2c(-c3cccc(F)c3)ncc(C(=O)C3=C(O)CCCC3=O)c2=O)cc1` [Compound 203], the “Plant response rating, Corn” value is listed as 0.

The same experiment, now with this note: Preemergence, 500 g ai/ha; 0 to 100 scale, 0 = no effect, 100 = complete control.
As to `COc1ccc(-n2c(-c3cccc(F)c3)ncc(C(=O)C3=C(O)CCCC3=O)c2=O)cc1` [Compound 203], the “Plant response rating, Corn” value worked out at 20.

The subject of a further experiment is giant foxtail (Setaria faberii). Nature of the experiment: Test A pre-/postemergence plant response. The following applies: Postemergence, 125 g ai/ha; 0 to 100 scale where 0 is no effect and 100 is complete control. It counts as in vivo. The method in brief:
as §1
Consider `COc1ccc(-n2c(-c3cccc(F)c3)ncc(C(=O)C3=C(O)CCCC3=O)c2=O)cc1` [Compound 203], for which the “Plant response rating, Foxtail, Giant” value turned out to be 30.

The experiment is the same for the next values; noted with them: Postemergence, 500 g ai/ha; visual injury, 0 to 100 scale (0 no effect, 100 complete control), approx. ten days.
Take `COc1ccc(-n2c(-c3cccc(F)c3)ncc(C(=O)C3=C(O)CCCC3=O)c2=O)cc1` [Compound 203]: the “Foxtail, Giant plant response rating” value was 80.

The experiment is the same for the next values; noted with them: Preemergence, 125 g ai/ha; 0 to 100 scale, 0 = no effect, 100 = complete control.
On to `COc1ccc(-n2c(-c3cccc(F)c3)ncc(C(=O)C3=C(O)CCCC3=O)c2=O)cc1` [Compound 203], for which the “Plant response rating, Foxtail, Giant” value is recorded as 30.

The same experiment, now with this note: Preemergence, 500 g ai/ha; 0 to 100 scale, 0 = no effect, 100 = complete control.
Regarding `COc1ccc(-n2c(-c3cccc(F)c3)ncc(C(=O)C3=C(O)CCCC3=O)c2=O)cc1` [Compound 203], the “Plant response rating, Foxtail, Giant” value is listed as 90.

The next experiment deals with large crabgrass (Digitaria sanguinalis). Nature of the experiment: Test A pre-/postemergence plant response. In kind it is in vivo. The following applies: Postemergence, 125 g ai/ha; 0 to 100 scale where 0 is no effect and 100 is complete control. The method in brief: as §1
With `COc1ccc(-n2c(-c3cccc(F)c3)ncc(C(=O)C3=C(O)CCCC3=O)c2=O)cc1` [Compound 203], the “Plant response rating, Crabgrass, Large” value is given as 30.

The same experiment, now with this note: Postemergence, 500 g ai/ha; visual injury, 0 to 100 scale (0 no effect, 100 complete control), approx. ten days.
As for `COc1ccc(-n2c(-c3cccc(F)c3)ncc(C(=O)C3=C(O)CCCC3=O)c2=O)cc1` [Compound 203], the “Crabgrass, Large plant response rating” value was 70.

Staying with this experiment, now noted: Preemergence, 125 g ai/ha; 0 to 100 scale, 0 = no effect, 100 = complete control.
Take `COc1ccc(-n2c(-c3cccc(F)c3)ncc(C(=O)C3=C(O)CCCC3=O)c2=O)cc1` [Compound 203]: the “Plant response rating, Crabgrass, Large” value came out at 20.

Staying with this experiment, now noted: Preemergence, 500 g ai/ha; 0 to 100 scale, 0 = no effect, 100 = complete control.
Turning to `COc1ccc(-n2c(-c3cccc(F)c3)ncc(C(=O)C3=C(O)CCCC3=O)c2=O)cc1` [Compound 203], the “Plant response rating, Crabgrass, Large” value is 70.

Another experiment deals with morningglory (Ipomoea spp.). Nature of the experiment: Test A pre-/postemergence plant response. In kind it is in vivo. The following applies: Postemergence, 125 g ai/ha; 0 to 100 scale where 0 is no effect and 100 is complete control. The method in brief:
as §1
With `COc1ccc(-n2c(-c3cccc(F)c3)ncc(C(=O)C3=C(O)CCCC3=O)c2=O)cc1` [Compound 203], the “Plant response rating, Morningglory” value is 100.

Still in this experiment, the particulars now being: Postemergence, 500 g ai/ha; visual injury, 0 to 100 scale (0 no effect, 100 complete control), approx. ten days.
On to `COc1ccc(-n2c(-c3cccc(F)c3)ncc(C(=O)C3=C(O)CCCC3=O)c2=O)cc1` [Compound 203], for which the “Morningglory plant response rating” value is reported as 100.

Still in this experiment, the particulars now being: Preemergence, 125 g ai/ha; 0 to 100 scale, 0 = no effect, 100 = complete control.
Take `COc1ccc(-n2c(-c3cccc(F)c3)ncc(C(=O)C3=C(O)CCCC3=O)c2=O)cc1` [Compound 203]: the “Plant response rating, Morningglory” value is listed as 0.

The same experiment, now with this note: Preemergence, 500 g ai/ha; 0 to 100 scale, 0 = no effect, 100 = complete control.
As for `COc1ccc(-n2c(-c3cccc(F)c3)ncc(C(=O)C3=C(O)CCCC3=O)c2=O)cc1` [Compound 203], the “Plant response rating, Morningglory” value came out at 70.

The next experiment concerns pigweed (Amaranthus retroflexus). Nature of the experiment: Test A pre-/postemergence plant response. In kind it is in vivo. As to conditions: Postemergence, 125 g ai/ha; 0 to 100 scale where 0 is no effect and 100 is complete control. The method in brief: as §1
`COc1ccc(-n2c(-c3cccc(F)c3)ncc(C(=O)C3=C(O)CCCC3=O)c2=O)cc1` [Compound 203]: the “Plant response rating, Pigweed” value is on record as 100.

Staying with this experiment, now noted: Postemergence, 500 g ai/ha; visual injury, 0 to 100 scale (0 no effect, 100 complete control), approx. ten days.
As to `COc1ccc(-n2c(-c3cccc(F)c3)ncc(C(=O)C3=C(O)CCCC3=O)c2=O)cc1` [Compound 203], the “Pigweed plant response rating” value is reported as 100.

The same experiment, now with this note: Preemergence, 125 g ai/ha; 0 to 100 scale, 0 = no effect, 100 = complete control.
Regarding `COc1ccc(-n2c(-c3cccc(F)c3)ncc(C(=O)C3=C(O)CCCC3=O)c2=O)cc1` [Compound 203], the “Plant response rating, Pigweed” value stood at 100.

Still in this experiment, the particulars now being: Preemergence, 500 g ai/ha; 0 to 100 scale, 0 = no effect, 100 = complete control.
Regarding `COc1ccc(-n2c(-c3cccc(F)c3)ncc(C(=O)C3=C(O)CCCC3=O)c2=O)cc1` [Compound 203], the “Plant response rating, Pigweed” value was determined as 100.
